Usually mortality stands for the share of the test organisms that died.

The record followed here is patent publication US20250228239A1, “MOLECULES HAVING PESTICIDAL UTILITY, AND INTERMEDIATES, COMPOSITIONS, AND PROCESSES, RELATED THERETO” (priority 2024, published 2025).

The test system of assay [1] is Cabbage Looper (Trichoplusia ni, TRIPNI). Briefly: Bioassays on Cabbage Looper (CL), 128-well diet tray assay. It counts as in vivo. The following applies: Trichoplusia ni. A digest of the protocol:
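Diet tray, 2nd instar, 1–5 larvae/well; 50 μg/cm^2 compound surface-applied (acetone:water 90:10), dried; 8 wells/treatment; 25° C, 14:10 L:D, 5–7 d; % mortality, mean of 8 wells.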

In assay [2] the test system is Beet Armyworm (Spodoptera exigua, LAPHEG). Briefly: Bioassays on Beet Armyworm (BAW), 128-well diet tray assay. The note with it: Spodoptera exigua. It counts as in vivo. A digest of the protocol: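 Diet-overlay assay: 50 μg/cm^2 compound applied in 90:10 acetone-water to artificial diet, allowed to dry, then infested with 1–5 L2 larvae/well; 8 wells/compound; covered, vented; 25° C., 14:10 L:D, 5–7 d; % mortality per well, averaged.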

Setting [3] is: Cabbage Looper, Table ABC / ABC-DP rating, read-out: CL rating.
Where [4] appears, read: Beet Armyworm, Table ABC / ABC-DP rating, read-out: BAW rating.
The mark [5] stands for this setting: Cabbage Looper, rating class, read-out: CL.
[6] abbreviates: Beet Armyworm, rating class, read-out: BAW.
[7] abbreviates: Table ABC: Biological Results, species CL, read-out: CL.
Where [8] appears, read: Table ABC: Biological Results, species BAW, read-out: BAW.

The structures appear in SMILES notation. Where two headings read alike, the source gives them in different places.

With `O=C(Nc1c(F)ccc(NC(=O)C(F)(F)C(F)(F)C(F)(F)F)c1F)c1cc(NC(=O)[C@H]2[C@H](c3cc(Cl)c(Cl)c(Cl)c3)C2(Cl)Cl)cc(F)c1F` [F1779, 5-((1R,3R)-2,2-Dichloro-3-(3,4,5-trichlorophenyl)cyclopropane-1-carboxamido)-N-(2,6-difluoro-3-(2,2,3,3,4,4,4-heptafluorobutanamido)phenyl)-2,3-difluorobenzamide], the pest or weed control at 50 µg/cm2 in assay [1] (setting [3]) and in assay [2] (setting [4]) was 50 to 100% each time.
On to `O=C(Nc1ccc(F)c(NC(=O)C2CCCS2)c1F)c1cc(NC(=O)[C@H]2[C@H](c3ccc(F)c(C(F)(F)F)c3)C2(Cl)Cl)ccc1Cl` (stereo partly drawn) [F1721, N-(3-(2-Chloro-5-((1R,3R)-2,2-dichloro-3-(4-fluoro-3-(trifluoromethyl)phenyl)cyclopropane-1-carboxamido)benzamido)-2,6-difluorophenyl)tetrahydrothiophene-2-carboxamide], for which the pest or weed control at 50 µg/cm2 in assay [1] (setting [5]) and in assay [2] (setting [6]) was 50 to 100% in each case.
Turning to `C#CCN(C(=O)COC(F)(F)F)c1c(F)ccc(NC(=O)c2cc(NC(=O)[C@H]3[C@H](c4ccc(F)c(C(F)(F)F)c4)C3(Cl)Cl)ccc2Cl)c1F` [F1811, 2-Chloro-5-((1R,3R)-2,2-dichloro-3-(4-fluoro-3-(trifluoromethyl)phenyl)cyclopropane-1-carboxamido)-N-(2,4-difluoro-3-(N-(prop-2-yn-1-yl)-2-(trifluoromethoxy)acetamido)phenyl)benzamide], the pest or weed control at 50 µg/cm2 in assay [1] (setting [3]) and in assay [2] (setting [4]) was 50 to 100% each time.
Regarding `O=C(Nc1c(F)ccc(NC(=O)C(F)F)c1F)c1cc(NC(=O)[C@H]2[C@H](c3cc(Cl)c(Cl)c(Cl)c3)C2(Cl)Cl)cc(F)c1F` [F1589, 5-((1R,3R)-2,2-Dichloro-3-(3,4,5-trichlorophenyl)cyclopropane-1-carboxamido)-N-(3-(2,2-difluoroacetamido)-2,6-difluorophenyl)-2,3-difluorobenzamide], the pest or weed control at 50 µg/cm2 in assay [1] (setting [5]) and in assay [2] (setting [6]) was 50 to 100% in each case.
Regarding `O=C(Nc1cc(NC(=O)C(F)F)c(F)cc1F)c1cc(NC(=O)[C@H]2[C@H](c3ccc(F)c(C(F)(F)F)c3)C2(Cl)Cl)cc(F)c1F` [F1586, 5-((1R,3R)-2,2-Dichloro-3-(4-fluoro-3-(trifluoromethyl)phenyl)cyclopropane-1-carboxamido)-N-(5-(2,2-difluoroacetamido)-2,4-difluorophenyl)-2,3-difluorobenzamide], the pest or weed control at 50 µg/cm2 in assay [1] (setting [5]) and in assay [2] (setting [6]) was 50 to 100% in each case.
As to `O=C(Nc1cc(NC(=O)C(F)F)c(F)cc1F)c1cc(NC(=O)[C@H]2[C@H](c3ccc(Cl)c(Cl)c3)C2(Cl)Cl)ccc1F` [F1509, 5-((1R,3R)-2,2-Dichloro-3-(3,4-dichlorophenyl)cyclopropane-1-carboxamido)-N-(5-(2,2-difluoroacetamido)-2,4-difluorophenyl)-2-fluorobenzamide], the pest or weed control at 50 µg/cm2 in assay [1] (setting [5]) and in assay [2] (setting [6]) was 50 to 100% throughout.
As for `Cc1cc(NC(=O)[C@H]2[C@H](c3ccc(F)c(C(F)(F)F)c3)C2(Cl)Cl)cc(C(=O)Nc2cc(NC(=O)C(F)F)c(F)cc2F)c1Cl` [F1500, 2-Chloro-5-((1R,3R)-2,2-dichloro-3-(4-fluoro-3-(trifluoromethyl)phenyl)cyclopropane-1-carboxamido)-N-(5-(2,2-difluoroacetamido)-2,4-difluorophenyl)-3-methylbenzamide], the pest or weed control at 50 µg/cm2 in assay [1] (setting [5]) and in assay [2] (setting [6]) was 50 to 100% each time.
For `O=C(Nc1cc(NC(=O)C(F)(F)F)c(F)cc1F)c1cc(NC(=O)[C@H]2[C@H](c3cc(Cl)cc(Cl)c3)C2(Cl)Cl)cc(F)c1Cl` [F1409, 2-Chloro-5-((1R,3R)-2,2-dichloro-3-(3,5-dichlorophenyl)cyclopropane-1-carboxamido)-N-(2,4-difluoro-5-(2,2,2-trifluoroacetamido)phenyl)-3-fluorobenzamide], the pest or weed control at 50 µg/cm2 in assay [1] (setting [5]) and in assay [2] (setting [6]) was 50 to 100% in each case.
In the case of `O=C(NCC(F)(F)C(F)(F)F)c1c(Cl)ccc(NC(=O)[C@H]2[C@H](c3ccc(F)c(Cl)c3)C2(Cl)Cl)c1F` [F2073, 6-Chloro-3-((1R,3R)-2,2-dichloro-3-(3-chloro-4-fluorophenyl)cyclopropane-1-carboxamido)-2-fluoro-N-(2,2,3,3,3-pentafluoropropyl)benzamide], the pest or weed control at 50 µg/cm2 in assay [1] (setting [3]) and in assay [2] (setting [4]) was 50 to 100% each time.
For the molecule `Cc1cc(NC(=O)[C@H]2[C@H](c3ccc(F)c(Cl)c3)C2(Cl)Cl)cc(C(=O)Nc2ccc(F)c(N)c2F)c1Cl` (relative stereo) [F1222, trans-N-(3-Amino-2,4-difluorophenyl)-2-chloro-5-(2,2-dichloro-3-(3-chloro-4-fluorophenyl)cyclopropane-1-carboxamido)-3-methylbenzamide], the pest or weed control at 50 µg/cm2 in assay [1] (setting [7]) and in assay [2] (setting [8]) was 50 to 100% each time.
As for `Cc1ccc(C(=O)Nc2c(F)ccc(NC(=O)c3cc(NC(=O)[C@H]4[C@H](c5ccc(F)c(C(F)(F)F)c5)C4(Cl)Cl)ccc3Cl)c2F)s1` [F1302, N-(3-(2-Chloro-5-((1R,3R)-2,2-dichloro-3-(4-fluoro-3-(trifluoromethyl)phenyl)cyclopropane-1-carboxamido)benzamido)-2,6-difluorophenyl)-5-methylthiophene-2-carboxamide], the pest or weed control at 50 µg/cm2 in assay [1] (setting [7]) and in assay [2] (setting [8]) was 50 to 100% in each case.
As to `O=C(Nc1c(F)ccc(NC(=O)c2cc(NC(=O)[C@H]3[C@H](c4ccc(F)c(C(F)(F)F)c4)C3(Cl)Cl)ccc2Cl)c1F)c1ccns1` [F1817, N-(3-(2-Chloro-5-((1R,3R)-2,2-dichloro-3-(4-fluoro-3-(trifluoromethyl)phenyl)cyclopropane-1-carboxamido)benzamido)-2,6-difluorophenyl)isothiazole-5-carboxamide], the pest or weed control at 50 µg/cm2 in assay [1] (setting [3]) and in assay [2] (setting [4]) was 50 to 100% each time.
`Nc1c(F)ccc(NC(=O)c2cc(NC(=O)C3C(c4cc(F)cc(Br)c4F)C3(Cl)Cl)ccc2Cl)c1F` (stereo not drawn) [F1097, cis-(3-Amino-2,4-difluorophenyl)-5-(3-(3-bromo-2,5-difluorophenyl)-2,2-dichlorocyclopropane-1-carboxamido)-2-chlorobenzamide]: the pest or weed control at 50 µg/cm2 in assay [1] (setting [7]) and in assay [2] (setting [8]) was 50 to 100% each time.
For the molecule `O=C(NNc1ccccc1C(F)(F)F)c1cc(NC(=O)[C@H]2[C@H](c3cc(Cl)cc(Cl)c3)C2(Cl)Cl)ccc1Cl` (relative stereo) [F2573, trans-2,2-Dichloro-N-(4-chloro-3-(2-(2-(trifluoromethyl)phenyl)hydrazine-1-carbonyl)phenyl)-3-(3,5-dichlorophenyl)cyclopropane-1-carboxamide], the mortality at 50 µg/cm2 in assay [1] (168 h, second instar larvae, 50 μg/cm^2 of test molecule on artificial diet, 25° C., five to seven days, average of eight wells, read-out: CL % Control (or Mortality) rating) was in the range of 50 to 100%; in assay [2] (168 h, second instar larvae, 50 μg/cm^2 of test molecule on artificial diet, 25° C., five to seven days, average of eight wells, read-out: BAW % Control (or Mortality) rating), 50 to 100%. The pest or weed control at 50 µg/cm2 in assay [1] (setting [3]) and in assay [2] (setting [4]) was 50 to 100% each time.
For the molecule `O=C(NCC(F)(F)F)c1c(Cl)ccc(NC(=O)[C@H]2[C@H](c3ccc(F)c(Cl)c3)C2(Cl)Cl)c1F` [F2072, 6-Chloro-3-((1R,3R)-2,2-dichloro-3-(3-chloro-4-fluorophenyl)cyclopropane-1-carboxamido)-2-fluoro-N-(2,2,2-trifluoroethyl)benzamide], the pest or weed control at 50 µg/cm2 in assay [1] (setting [3]) and in assay [2] (setting [4]) was 50 to 100% in each case.
Regarding `O=C(Nc1ccc(F)cc1NC(=O)C(F)(F)F)c1cc(NC(=O)[C@H]2[C@H](c3ccc(Cl)c(Cl)c3)C2(Cl)Cl)ccc1Cl` (relative stereo) [F1121, trans-2-Chloro-5-(2,2-dichloro-3-(3,4-dichlorophenyl)cyclopropane-1-carboxamido)-N-(4-fluoro-2-(2,2,2-trifluoroacetamido)phenyl)benzamide], the pest or weed control at 50 µg/cm2 in assay [1] (setting [7]) and in assay [2] (setting [8]) was 50 to 100% each time.
Turning to `O=C(CC(F)(F)F)NNC(=O)c1cc(NC(=O)[C@H]2[C@H](c3cc(Cl)cc(Cl)c3)C2(Cl)Cl)ccc1Cl` (relative stereo) [F2516, trans-2,2-Dichloro-N-(4-chloro-3-(2-(3,3,3-trifluoropropanoyl)hydrazine-1-carbonyl)phenyl)-3-(3,5-dichlorophenyl)cyclopropane-1-carboxamide], the pest or weed control at 50 µg/cm2 in assay [1] (setting [3]) and in assay [2] (setting [4]) was 50 to 100% each time.
On to `O=C(NCC(F)(F)F)c1cc(NC(=O)[C@H]2[C@H](c3ccc(F)c(Cl)c3)C2(Cl)Cl)cc(Cl)c1F` (relative stereo) [F2045, trans-3-Chloro-5-(2,2-dichloro-3-(3-chloro-4-fluorophenyl)cyclopropane-1-carboxamido)-2-fluoro-N-(2,2,2-trifluoroethyl)benzamide], for which the pest or weed control at 50 µg/cm2 in assay [1] (setting [3]) and in assay [2] (setting [4]) was 50 to 100% each time.
As for `C=CCC(=O)Nc1c(F)ccc(NC(=O)c2cc(NC(=O)[C@H]3[C@H](c4ccc(Cl)c(Cl)c4)C3(Cl)Cl)ccc2Cl)c1F` [F1873, N-(3-(But-3-enamido)-2,4-difluorophenyl)-2-chloro-5-((1R,3R)-2,2-dichloro-3-(3,4-dichlorophenyl)cyclopropane-1-carboxamido)benzamide], the pest or weed control at 50 µg/cm2 in assay [1] (setting [3]) and in assay [2] (setting [4]) was 50 to 100% in each case.
